Assay results: PubChem BioAssay (NCI)
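These data come from cells grown in 96-well plates and exposed to compound for 48 hours at five concentrations. GI50: concentration for 50% inhibition of growth. At the TGI there is no net growth.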

Tests used:
Test in all cases: NCI anticancer screen, dose series, 48 h; in the data active = GI50 below about 0.43 µM; inactive = the rest
[1] = tested on: SK-MEL-2 melanoma
[2] = tested on: PC-3 prostate
[3] = tested on: SK-MEL-5 melanoma
[4] = tested on: MCF7 breast
[5] = tested on: UACC-257 melanoma
[6] = tested on: NCI-H23 lung
[7] = tested on: COLO 205 colon
[8] = tested on: SK-OV-3 ovarian
[9] = tested on: KM12 colon
[10] = tested on: OVCAR-3 ovarian
[11] = tested on: HL-60(TB) leukemia
[12] = tested on: UO-31 renal
[13] = tested on: MDA-MB-231 breast
[14] = tested on: OVCAR-4 ovarian
[15] = tested on: MDA-MB-435
[16] = tested on: K-562 leukemia
[17] = tested on: RXF 393 renal
[18] = tested on: SNB-75 CNS
[19] = tested on: TK-10 renal
[20] = tested on: MOLT-4 leukemia
[21] = tested on: RPMI-8226 leukemia
[22] = tested on: HT29 colon
[23] = tested on: CCRF-CEM leukemia
[24] = tested on: A498 renal
[25] = tested on: MALME-3M melanoma
[26] = tested on: UACC-62 melanoma
[27] = tested on: BT-549 breast
[28] = tested on: OVCAR-8 ovarian
[29] = tested on: SK-MEL-28 melanoma
[30] = tested on: LOX IMVI melanoma
[31] = tested on: T-47D breast
[32] = tested on: U251 CNS
[33] = tested on: HS 578T breast
[34] = tested on: NCI-H460 lung
[35] = tested on: SF-539 CNS
[36] = tested on: HOP-62 NSCLC
[37] = tested on: IGROV1 ovarian
[38] = tested on: SN12C renal
[39] = tested on: NCI-H522 lung
[40] = tested on: NCI-H226 lung
[41] = tested on: OVCAR-5 ovarian
[42] = tested on: HCT-15 colon
[43] = tested on: NCI/ADR-RES ovarian
[44] = tested on: ACHN renal
[45] = tested on: HOP-92 NSCLC
[46] = tested on: SNB-19 CNS
[47] = tested on: HCC-2998 colon
[48] = tested on: A549 NSCLC
[49] = tested on: EKVX NSCLC
[50] = tested on: M14 melanoma
[51] = tested on: DU-145 prostate
[52] = tested on: SF-295 CNS
[53] = tested on: HCT-116 colon
[54] = tested on: SF-268 CNS
[55] = tested on: SW-620 colon
[56] = tested on: SR leukemia
[57] = tested on: 786-0 renal
[58] = tested on: CAKI-1 renal

CN(C)c1ccc(N=Nc2ccc(Br)cn2)c(O)c1
7840 nM: TGI [5]
> 32800 nM: TGI [7]
> 73600 nM: TGI [36]
> 21300 nM: TGI [50]
> 46700 nM: TGI [20]
2440 nM: TGI [11]
4350 nM: TGI [3]
> 100000 nM: TGI [1] | TGI [2] | TGI [4] | TGI [6] | TGI [8] | TGI [9] | TGI [12] | TGI [13] | TGI [15] | TGI [16] | TGI [19] | TGI [21] | TGI [22] | TGI [25] | TGI [27] | TGI [28] | TGI [29] | TGI [31] | TGI [32] | TGI [33] | TGI [37] | TGI [38] | TGI [41] | TGI [42] | TGI [44] | TGI [45] | TGI [46] | TGI [47] | TGI [48] | TGI [49] | TGI [51] | TGI [52] | TGI [54] | TGI [55] | TGI [57] | TGI [58]
12500 nM: TGI [43]
active: GI50 [4] 385 nM | GI50 [7] 373 nM | GI50 [10] 320 nM | GI50 [11] 260 nM | GI50 [12] 160 nM | GI50 [14] 186 nM | GI50 [20] 294 nM | GI50 [23] 227 nM | GI50 [30] 294 nM | GI50 [32] 373 nM | GI50 [34] 281 nM | GI50 [36] 389 nM | GI50 [37] 359 nM | GI50 [42] 171 nM | GI50 [43] 362 nM | GI50 [44] 361 nM | GI50 [49] 382 nM | GI50 [53] 325 nM | GI50 [54] 404 nM | GI50 [56] 149 nM | GI50 [57] 266 nM
7680 nM: TGI [40]
> 82600 nM: TGI [18]
> 34000 nM: TGI [56]
> 28600 nM: TGI [39]
7060 nM: TGI [17]
8800 nM: TGI [35]
> 40000 nM: TGI [53]
> 31000 nM: TGI [10]
inactive: GI50 [1] 5280 nM | GI50 [2] 556 nM | GI50 [3] 774 nM | GI50 [5] 2270 nM | GI50 [6] 1130 nM | GI50 [8] 774 nM | GI50 [9] 854 nM | GI50 [13] 551 nM | GI50 [15] 1930 nM | GI50 [16] 471 nM | GI50 [17] 620 nM | GI50 [18] 1550 nM | GI50 [19] 681 nM | GI50 [21] 528 nM | GI50 [22] 603 nM | GI50 [24] 3210 nM | GI50 [25] 2650 nM | GI50 [26] 737 nM | GI50 [27] 737 nM | GI50 [28] 549 nM | GI50 [29] 2050 nM | GI50 [31] 568 nM | GI50 [33] 5780 nM | GI50 [35] 673 nM | GI50 [38] 704 nM | GI50 [39] 983 nM | GI50 [40] 1080 nM | GI50 [41] 1420 nM | GI50 [45] 1310 nM | GI50 [46] 641 nM | GI50 [47] 476 nM | GI50 [48] 682 nM | GI50 [50] 691 nM | GI50 [51] 653 nM | GI50 [52] 635 nM | GI50 [55] 565 nM | GI50 [58] 790 nM
4890 nM: TGI [14]
66700 nM: TGI [24]
> 34700 nM: TGI [34]
8350 nM: TGI [26]
